Data published in patent US20260015350A1, “AZAQUINAZOLINE PAN-KRAS INHIBITORS” (Mirati Therapeutics, Inc., priority 2022, published 2026).

Assays:
KRas^WT = target: T1, KRas^WT (Homo sapiens, UniProt P01116); assay: KRas binding assay (TR-FRET tracer displacement), KRas WT; details: TR-FRET tracer displacement, KRas WT
T1 construct: Biotinylated KRas (corresponding to amino acids 1-169, produced at Accelegan Inc.); biotin (biotinylated); purchased Accelegan Inc

KRas^G12R = target: T2, KRas^G12R (Homo sapiens, UniProt P01116, G12R); assay: KRas binding assay (TR-FRET tracer displacement), KRas G12R
T2 construct: Biotinylated KRas (corresponding to amino acids 1-169, produced at Accelegan Inc.); biotin (biotinylated); purchased Accelegan Inc
T2 sequence (P01116 1-169 isoform P01116-2 G12R): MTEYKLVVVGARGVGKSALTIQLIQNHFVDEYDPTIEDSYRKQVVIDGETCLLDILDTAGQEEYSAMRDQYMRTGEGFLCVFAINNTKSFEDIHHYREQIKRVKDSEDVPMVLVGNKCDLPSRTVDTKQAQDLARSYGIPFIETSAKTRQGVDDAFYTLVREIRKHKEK

KRas^G12C = target: T3, KRas^G12C (Homo sapiens, UniProt P01116, G12C); assay: KRas binding assay (TR-FRET tracer displacement), KRas G12C; details: TR-FRET tracer displacement, KRas G12C
T3 construct: Biotinylated KRas (corresponding to amino acids 1-169, produced at Accelegan Inc.); biotin (biotinylated); purchased Accelegan Inc
T3 sequence (P01116 1-169 isoform P01116-2 G12C): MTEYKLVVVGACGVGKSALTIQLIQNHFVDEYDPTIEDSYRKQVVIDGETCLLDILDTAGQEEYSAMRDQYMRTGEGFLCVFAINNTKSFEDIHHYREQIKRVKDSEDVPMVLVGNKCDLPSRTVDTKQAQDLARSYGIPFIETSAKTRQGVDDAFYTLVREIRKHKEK

KRas^G12V = target: T4, KRas^G12V (Homo sapiens, UniProt P01116, G12V); assay: KRas binding assay (TR-FRET tracer displacement), KRas G12V
T4 construct: Biotinylated KRas (corresponding to amino acids 1-169, produced at Accelegan Inc.); biotin (biotinylated); purchased Accelegan Inc
T4 sequence (P01116 1-169 isoform P01116-2 G12V): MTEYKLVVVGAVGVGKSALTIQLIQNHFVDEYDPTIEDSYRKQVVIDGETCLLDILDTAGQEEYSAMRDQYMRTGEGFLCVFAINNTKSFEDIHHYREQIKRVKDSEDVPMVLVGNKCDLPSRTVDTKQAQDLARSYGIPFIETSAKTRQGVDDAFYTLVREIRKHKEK

KRas^G12S = target: T5, KRas^G12S (Homo sapiens, UniProt P01116, G12S); assay: KRas binding assay (TR-FRET tracer displacement), KRas G12S; details: TR-FRET tracer displacement, KRas G12S
T5 construct: Biotinylated KRas (corresponding to amino acids 1-169, produced at Accelegan Inc.); biotin (biotinylated); purchased Accelegan Inc
T5 sequence (P01116 1-169 isoform P01116-2 G12S): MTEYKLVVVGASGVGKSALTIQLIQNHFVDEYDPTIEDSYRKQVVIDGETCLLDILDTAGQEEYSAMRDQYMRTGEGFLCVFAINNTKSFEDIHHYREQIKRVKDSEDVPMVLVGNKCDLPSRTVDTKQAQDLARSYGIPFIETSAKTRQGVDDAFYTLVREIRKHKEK

KRas^Q61H = target: T6, KRas^Q61H (Homo sapiens, UniProt P01116, Q61H); assay: KRas binding assay (TR-FRET tracer displacement), KRas Q61H; details: TR-FRET tracer displacement, KRas Q61H
T6 construct: Biotinylated KRas (corresponding to amino acids 1-169, produced at Accelegan Inc.); biotin (biotinylated); purchased Accelegan Inc
T6 sequence (P01116 1-169 isoform P01116-2 Q61H): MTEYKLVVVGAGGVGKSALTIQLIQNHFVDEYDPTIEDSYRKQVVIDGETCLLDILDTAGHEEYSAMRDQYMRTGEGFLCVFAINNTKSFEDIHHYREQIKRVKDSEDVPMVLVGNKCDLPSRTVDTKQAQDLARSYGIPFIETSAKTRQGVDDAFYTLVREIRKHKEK

KRas^G12A = target: T7, KRas^G12A (Homo sapiens, UniProt P01116, G12A); assay: KRas binding assay (TR-FRET tracer displacement), KRas G12A; details: TR-FRET tracer displacement, KRas G12A
T7 construct: Biotinylated KRas (corresponding to amino acids 1-169, produced at Accelegan Inc.); biotin (biotinylated); purchased Accelegan Inc
T7 sequence (P01116 1-169 isoform P01116-2 G12A): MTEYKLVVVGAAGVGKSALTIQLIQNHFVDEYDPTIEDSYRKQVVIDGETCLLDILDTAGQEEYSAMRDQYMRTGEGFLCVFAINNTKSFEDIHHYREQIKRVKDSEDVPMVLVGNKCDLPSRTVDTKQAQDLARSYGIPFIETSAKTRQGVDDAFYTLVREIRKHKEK

KRas^G13D = target: T8, KRas^G13D (Homo sapiens, UniProt P01116, G13D); assay: KRas binding assay (TR-FRET tracer displacement), KRas G13D; details: TR-FRET tracer displacement, KRas G13D
T8 construct: Biotinylated KRas (corresponding to amino acids 1-169, produced at Accelegan Inc.); biotin (biotinylated); purchased Accelegan Inc
T8 sequence (P01116 1-169 isoform P01116-2 G13D): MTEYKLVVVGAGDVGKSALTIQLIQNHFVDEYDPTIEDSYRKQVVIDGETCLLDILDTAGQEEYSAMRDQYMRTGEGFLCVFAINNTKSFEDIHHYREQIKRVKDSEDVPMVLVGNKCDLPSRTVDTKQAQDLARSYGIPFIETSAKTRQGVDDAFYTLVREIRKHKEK

KRas^G12D = target: T9, KRas^G12D (Homo sapiens, UniProt P01116, G12D); assay: KRas binding assay (TR-FRET tracer displacement), KRas G12D
T9 construct: Biotinylated KRas (corresponding to amino acids 1-169, produced at Accelegan Inc.); biotin (biotinylated); purchased Accelegan Inc
T9 sequence (P01116 1-169 isoform P01116-2 G12D): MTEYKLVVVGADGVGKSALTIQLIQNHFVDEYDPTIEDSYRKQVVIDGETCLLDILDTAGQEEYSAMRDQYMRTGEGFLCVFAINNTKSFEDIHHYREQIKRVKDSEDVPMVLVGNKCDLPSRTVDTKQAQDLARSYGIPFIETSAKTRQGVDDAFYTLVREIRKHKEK

[1] = test system: KRas-mediated phosphorylation of ERK in MKN1 cells; assay: Inhibition of KRas-mediated phosphorylation of ERK (Cisbio HTRF pERK), MKN1 cells; type: cell-based; details: Homo sapiens, MKN-1
How it was run: (§1)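 Day 1 seeding: 6,000 cells per well, RPMI/10% FBS, left overnight at 37° C. with 5% CO2. Plates then stood covered for 4 h at room temperature prior to HTRF detection of pERK.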

[2] = test system: KRas-mediated phosphorylation of ERK in PSN1 cells; assay: Inhibition of KRas-mediated phosphorylation of ERK (Cisbio HTRF pERK), PSN1 cells; type: cell-based; details: Homo sapiens
How it was run: as §1

[3] = test system: KRas-mediated phosphorylation of ERK in H460 cells; assay: Inhibition of KRas-mediated phosphorylation of ERK (Cisbio HTRF pERK), H460 cells; type: cell-based; details: Homo sapiens, NCI-H460, HTRF pERK
How it was run: (§2)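 Phosphorylated ERK was quantified by HTRF using d2-conjugate and Cryptate antibodies added to lysates for 2 hrs at room temperature.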

[4] = test system: KRas-mediated phosphorylation of ERK in A549 cells; assay: Inhibition of KRas-mediated phosphorylation of ERK (Cisbio HTRF pERK), A549 cells; type: cell-based; details: Homo sapiens, HTRF pERK
How it was run: (§3)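 Following a 3-hr exposure of cells to serially diluted compound (from 10 uM, 3-fold, 10 doses), cold lysis for 40 mins preceded a 2-hr room-temperature HTRF immunoassay for phosphorylated ERK.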

[5] = test system: KRas-mediated phosphorylation of ERK in AsPC-1 cells; assay: Inhibition of KRas-mediated phosphorylation of ERK (Cisbio HTRF pERK), AsPC-1 cells; type: cell-based; details: Homo sapiens, ASPC1, AsPC-1 cells; HTRF pERK
How it was run: as §2

[6] = test system: KRas-mediated phosphorylation of ERK in H727 cells; assay: Inhibition of KRas-mediated phosphorylation of ERK (Cisbio HTRF pERK), H727 cells; type: cell-based; details: Homo sapiens, NCI-H727, H727 cells; HTRF pERK
How it was run: as §2

[7] = test system: KRas-mediated phosphorylation of ERK in HCT116 cells; assay: Inhibition of KRas-mediated phosphorylation of ERK (Cisbio HTRF pERK), HCT116 cells; type: cell-based; details: Homo sapiens, HCT-116, HTRF pERK
How it was run: as §3

[8] = test system: KRas-mediated phosphorylation of ERK in H358 cells; assay: Inhibition of KRas-mediated phosphorylation of ERK (Cisbio HTRF pERK), H358 cells; type: cell-based; details: Homo sapiens, NCI-H358, HTRF pERK
How it was run: as §2

T1 sequence (P01116 1-169 isoform P01116-2): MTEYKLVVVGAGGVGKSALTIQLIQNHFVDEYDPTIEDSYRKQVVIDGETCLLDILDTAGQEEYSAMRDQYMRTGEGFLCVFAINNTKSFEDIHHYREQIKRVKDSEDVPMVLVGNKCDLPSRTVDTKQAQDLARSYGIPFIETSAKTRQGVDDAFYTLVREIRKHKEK

| Structure (SMILES) | IC50 (KRas^WT) [nM] | IC50 (KRas^G12R) [nM] | IC50 (KRas^G12C) [nM] | IC50 (KRas^G12V) [nM] | IC50 (KRas^G12S) [nM] | IC50 (KRas^Q61H) [nM] | IC50 (KRas^G12A) [nM] | IC50 (KRas^G13D) [nM] | IC50 (KRas^G12D) [nM] | IC50 [1] [nM] | IC50 [2] [nM] | IC50 [3] [nM] | IC50 [4] [nM] | IC50 [5] [nM] | IC50 [6] [nM] | IC50 [7] [nM] | IC50 [8] [nM] |
| --- | --- | --- | --- | --- | --- | --- | --- | --- | --- | --- | --- | --- | --- | --- | --- | --- | --- |
| O=C1NC(=O)C2CC(c3nc(OCC45CCCN4CCC5)nc4c(F)c(-c5cccc6cccc(F)c56)ncc34)=CC12 (stereo not shown) [Example 525, 5-(8-fluoro-7-(8-fluoronaphthalen-1-yl)-2-((tetrahydro-1H-pyrrolizin-7a(5H)-yl)methoxy)pyrido[4,3-d]pyrimidin-4-yl)-4,6a-dihydrocyclopenta[c]pyrrole-1,3(2H,3aH)-dione] | > 100000 | 45400 | > 100000 | 55900 | > 100000 | > 100000 | 93800 | > 100000 | 50700 |  |  |  |  |  |  |  |  |
| O[C@@H]1C[C@H]2C[C@@H]1CN(c1nc(OC[C@@]34CCCN3C[C@H](F)C4)nc3c(F)c(-c4cccc5ccccc45)ncc13)C2 [Example 724, (1R,5R,6R)-3-(8-fluoro-2-(((2R,7aS)-2-fluorohexahydro-1H-pyrrolizin-7a-yl)methoxy)-7-(naphthalen-1-yl)pyrido[4,3-d]pyrimidin-4-yl)-3-azabicyclo[3.2.1]octan-6-ol] | 419 | 720 | 185 | 404 | 170 | 612 | 301 | 585 | 1590 |  |  |  |  |  |  |  |  |
| C#Cc1c(F)ccc2cc(O)cc(-c3ncc4c(N5CCC[C@@](C)(O)C5)nc(OC[C@]56CCCN5C/C(=C\F)C6)nc4c3F)c12 [Example 801, (3R)-1-(7-(8-ethynyl-7-fluoro-3-hydroxynaphthalen-1-yl)-8-fluoro-2-(((Z)-2-(fluoromethylene)tetrahydro-1H-pyrrolizin-7a(5H)-yl)methoxy)pyrido[4,3-d]pyrimidin-4-yl)-3-methylpiperidin-3-ol] | < 2 |  | < 2 | < 2 | < 2 |  |  |  | < 2 | 0.1 | 117 | 4 | 7 | 3 | 12 | 15 | 1 |
| Cc1cc2sncc2c(-c2ncc3c(N4CCC[C@@](C)(O)C4)nc(OCC45CCCN4CCC5)nc3c2F)c1C [Example 820, (3R)-1-(7-(5,6-dimethylbenzo[d]isothiazol-4-yl)-8-fluoro-2-((tetrahydro-1H-pyrrolizin-7a(5H)-yl)methoxy)pyrido[4,3-d]pyrimidin-4-yl)-3-methylpiperidin-3-ol] | 1400 | 76200 | 591 | 52000 | 1510 | 2130 | 634 | 470 | 22900 |  |  |  |  |  |  |  |  |
| Cc1cc2[nH]nnc2c(-c2ncc3c(N4CCC[C@@](C)(O)C4)nc(OC[C@@]45CCCN4C[C@H](F)C5)nc3c2F)c1C [Example 821, (3R)-1-(7-(5,6-dimethyl-1H-benzo[d][1,2,3]triazol-4-yl)-8-fluoro-2-(((2R,7aS)-2-fluorotetrahydro-1H-pyrrolizin-7a(5H)-yl)methoxy)pyrido[4,3-d]pyrimidin-4-yl)-3-methylpiperidin-3-ol] | 151 | 12000 | 146 | 5850 | 121 | 196 | 137 | 146 | 3890 |  |  |  |  |  |  |  |  |
